Results taken from US20100311729A1, “Substituted imidazopyridazines and pyrrolopyrimidines as lipid kinase inhibitors” (priority 2007, published 2010).

Tests used:
Type in all cases: biochemical
PI3K delta = target: T1, PI3K delta (Homo sapiens, UniProt O00329); assay: PI3 kinase assay (Kinase-Glo luminescence), PI3K delta; settings: Enzymatic Data; read-out: PI3K delta IC50 [umol]
T1 construct: for the full-length p110-d subunit are generated and fused by overlapping PCR; His tag (C); made in house; host or cells: baculovirus; Tn5 (Trichoplusia ni) or TiniPro insect cells
T1 sequence (O00329 with tags, fused parts or gaps limits assumed): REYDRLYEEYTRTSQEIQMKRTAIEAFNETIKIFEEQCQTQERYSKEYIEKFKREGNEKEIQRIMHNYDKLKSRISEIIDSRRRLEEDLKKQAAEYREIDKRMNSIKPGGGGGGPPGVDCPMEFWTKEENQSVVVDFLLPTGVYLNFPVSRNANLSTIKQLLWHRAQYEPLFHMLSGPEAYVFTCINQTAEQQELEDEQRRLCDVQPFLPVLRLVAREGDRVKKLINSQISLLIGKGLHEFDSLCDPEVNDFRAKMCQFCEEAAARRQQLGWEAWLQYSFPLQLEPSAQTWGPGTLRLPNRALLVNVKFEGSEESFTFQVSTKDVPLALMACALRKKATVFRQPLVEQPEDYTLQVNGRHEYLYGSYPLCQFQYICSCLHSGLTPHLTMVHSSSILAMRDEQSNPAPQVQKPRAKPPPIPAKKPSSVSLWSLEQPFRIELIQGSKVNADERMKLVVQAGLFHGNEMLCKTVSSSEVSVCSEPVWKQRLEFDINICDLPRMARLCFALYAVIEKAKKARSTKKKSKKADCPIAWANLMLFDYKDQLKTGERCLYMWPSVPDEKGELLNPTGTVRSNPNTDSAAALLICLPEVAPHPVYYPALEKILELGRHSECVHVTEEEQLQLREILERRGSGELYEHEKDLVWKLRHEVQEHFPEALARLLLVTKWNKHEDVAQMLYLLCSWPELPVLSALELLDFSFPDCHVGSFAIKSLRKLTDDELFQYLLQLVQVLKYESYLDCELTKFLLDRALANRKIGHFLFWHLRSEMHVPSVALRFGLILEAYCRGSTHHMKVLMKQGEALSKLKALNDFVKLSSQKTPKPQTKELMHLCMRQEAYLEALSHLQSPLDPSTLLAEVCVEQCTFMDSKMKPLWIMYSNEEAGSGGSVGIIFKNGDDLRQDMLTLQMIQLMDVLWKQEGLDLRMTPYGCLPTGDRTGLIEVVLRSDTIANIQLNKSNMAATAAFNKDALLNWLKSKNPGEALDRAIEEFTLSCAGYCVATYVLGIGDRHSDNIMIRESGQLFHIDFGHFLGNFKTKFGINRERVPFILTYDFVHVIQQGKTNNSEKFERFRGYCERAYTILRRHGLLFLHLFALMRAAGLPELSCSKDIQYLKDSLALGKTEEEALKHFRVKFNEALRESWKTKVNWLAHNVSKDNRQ
Procedure: (§1) In a more preferred assay, the kinase reaction is performed in a final volume of 10 μL per well of a low volume non binding CORNING, 384 well black plate (Cat. No. #3676). The final concentrations of ATP and phosphatidyl inositol (PI) in the assay are 1 μM and 10 μg/mL respectively. The reaction is started by the addition of ATP.
(§2) The components of the assay are added per well as follows:
(§3) 50 nL test compounds in 90% DMSO per well, in columns 1-20, 8 concentrations (1/3 and 1/3.33 serial dilution step) in single. • Low control: 50 nL of 90% DMSO in half the wells of columns 23-24 (0.45% in final). • High control: 50 nL of reference compound (e.g. compound of Example 7 in WO 2006/122806, incorporated by reference hereinin that regard) in the other half of columns 23-24 (2.5 μM in final). • Standard: 50 nL of reference compound as just mentioned diluted as the test compounds in columns 21-22 • 20 mL ‘buffer’ are prepared per assay: • 200 μL of 1M TRIS HCl pH7.5 (10 mM in final) • 60 μL of 1M MgCl2 (3 mM in final) • 500 μL of 2M NaCl (50 mM in final) • 100 μL of 10% CHAPS (0.05% in final) • 200 μL of 100 mM DTT (1 mM in final) • 18.94 mL of nanopure water • 10 mL ‘PI’ are prepared per assay: • 200 μL of 1 mg/ml L-alpha-Phosphatidylinositol (Liver Bovine, Avanti Polar Lipids Cat. No. 840042C MW=909.12) prepared in 3% OctylGlucoside (10 μg/ml in final) • 9.8 mL of ‘buffer’ • 10 mL ‘ATP’ are prepared per assay: • 6.7 μL of 3 mM stock of ATP giving a final concentration of 1 μM per well • 10 mL of ‘buffer’ • 2.5 mL of each PI3K construct are prepared per assay in ‘PI’ with the following final concentration : • 10 nM PI3K alfa B-1075 • 25 nM beta BV-949 • 10 nM delta BV-1060 • 150 nM gamma BV-950 • 5 μL of ‘PI/PI3K’ are added per well. • 5 μl ‘ATP’ are added per well to start the reaction. • The plates are then incubated at room temperature for 60 minutes (alfa, beta, delta) or 120 minutes (gamma). • The reaction is terminated by the addition of 10 μL Kinase-Glo (Promega Cat. No. #6714). • The assay plates are read after 10 minutes in Synergy 2 reader (BioTek, Vermont USA) with an integration time of 100 milliseconds and sensitivity set to 191. • Output : The High control is around 60'000 counts and the Low control is 30'000 or lower • This luminescence assay gives a useful Z′ ratio between 0.4 and 0.7
(§4) […] is determined by a four parameter curve fitting routine that comes aloneg with “excel fit”. A 4 Parameter logistic equation is used to calculate IC50 values (IDBS XLfit) of the percentage inhibition of each compound at 8 concentrations (usually 10, 3.0, 1.0, 0.3, 0.1, 0.030, 0.010 and […]). Alternatively, IC50 values are calculated using idbsXLfit model 204, which is a 4 parameter logistic model.
(§5) Testing with the following kinases in the test system mentioned above, with the kinases given in the following tables, the following IC 50 data can be obtained: […]

PI3K gamma = target: T2, PI3K gamma (Homo sapiens, UniProt P48736); assay: PI3 kinase assay (Kinase-Glo luminescence), PI3K gamma; settings: Enzymatic Data; read-out: PI3K gamma IC50 [umol]
T2 construct: PI3Kγ BV-950 p110g(D144aa)-C-Term His Tag; His tag (C); made in house; host or cells: construct from the Roger Williams lab (MRC LMB) in pVL1393; baculovirus; Tn5 (Trichoplusia ni) or TiniPro insect cells
T2 sequence (P48736 144-1102 limits assumed): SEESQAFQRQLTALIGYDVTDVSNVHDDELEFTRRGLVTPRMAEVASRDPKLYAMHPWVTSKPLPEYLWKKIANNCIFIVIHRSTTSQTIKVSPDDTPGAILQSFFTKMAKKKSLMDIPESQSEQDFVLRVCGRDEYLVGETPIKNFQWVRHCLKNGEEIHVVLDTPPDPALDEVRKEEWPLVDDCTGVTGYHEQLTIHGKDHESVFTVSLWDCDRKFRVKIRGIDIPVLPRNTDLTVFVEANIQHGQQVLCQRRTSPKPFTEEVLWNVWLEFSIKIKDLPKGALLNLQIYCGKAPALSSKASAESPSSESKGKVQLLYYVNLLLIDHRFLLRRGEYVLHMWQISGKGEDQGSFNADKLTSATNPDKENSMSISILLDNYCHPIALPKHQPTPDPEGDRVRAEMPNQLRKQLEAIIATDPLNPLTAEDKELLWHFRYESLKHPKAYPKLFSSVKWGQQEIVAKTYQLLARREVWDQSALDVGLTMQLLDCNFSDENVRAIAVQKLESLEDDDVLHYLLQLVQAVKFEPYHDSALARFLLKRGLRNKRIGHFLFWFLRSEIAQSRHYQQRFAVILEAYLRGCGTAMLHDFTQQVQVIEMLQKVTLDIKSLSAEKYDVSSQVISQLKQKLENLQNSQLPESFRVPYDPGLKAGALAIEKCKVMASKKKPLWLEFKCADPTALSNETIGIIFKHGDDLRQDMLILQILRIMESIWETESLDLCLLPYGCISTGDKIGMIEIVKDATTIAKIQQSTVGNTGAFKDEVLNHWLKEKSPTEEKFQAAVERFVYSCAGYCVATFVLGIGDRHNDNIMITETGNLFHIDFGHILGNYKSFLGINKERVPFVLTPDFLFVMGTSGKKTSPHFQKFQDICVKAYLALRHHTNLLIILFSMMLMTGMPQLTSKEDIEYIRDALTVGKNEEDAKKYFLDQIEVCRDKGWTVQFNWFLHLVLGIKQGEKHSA
Procedure: as §1, §2, §4

PI3K alfa = target: T3, PI3K alfa (Homo sapiens, UniProt P42336); assay: PI3 kinase assay (Kinase-Glo luminescence), PI3K alfa; settings: Enzymatic Data; read-out: PI3K alfa IC50 [umol]
T3 construct: for the p110-a subunit (with a deletion of the first 20 amino acids); His tag (C); made in house; host or cells: baculovirus; Tn5 (Trichoplusia ni) or TiniPro insect cells
T3 sequence (P42336 with tags, fused parts or gaps limits assumed): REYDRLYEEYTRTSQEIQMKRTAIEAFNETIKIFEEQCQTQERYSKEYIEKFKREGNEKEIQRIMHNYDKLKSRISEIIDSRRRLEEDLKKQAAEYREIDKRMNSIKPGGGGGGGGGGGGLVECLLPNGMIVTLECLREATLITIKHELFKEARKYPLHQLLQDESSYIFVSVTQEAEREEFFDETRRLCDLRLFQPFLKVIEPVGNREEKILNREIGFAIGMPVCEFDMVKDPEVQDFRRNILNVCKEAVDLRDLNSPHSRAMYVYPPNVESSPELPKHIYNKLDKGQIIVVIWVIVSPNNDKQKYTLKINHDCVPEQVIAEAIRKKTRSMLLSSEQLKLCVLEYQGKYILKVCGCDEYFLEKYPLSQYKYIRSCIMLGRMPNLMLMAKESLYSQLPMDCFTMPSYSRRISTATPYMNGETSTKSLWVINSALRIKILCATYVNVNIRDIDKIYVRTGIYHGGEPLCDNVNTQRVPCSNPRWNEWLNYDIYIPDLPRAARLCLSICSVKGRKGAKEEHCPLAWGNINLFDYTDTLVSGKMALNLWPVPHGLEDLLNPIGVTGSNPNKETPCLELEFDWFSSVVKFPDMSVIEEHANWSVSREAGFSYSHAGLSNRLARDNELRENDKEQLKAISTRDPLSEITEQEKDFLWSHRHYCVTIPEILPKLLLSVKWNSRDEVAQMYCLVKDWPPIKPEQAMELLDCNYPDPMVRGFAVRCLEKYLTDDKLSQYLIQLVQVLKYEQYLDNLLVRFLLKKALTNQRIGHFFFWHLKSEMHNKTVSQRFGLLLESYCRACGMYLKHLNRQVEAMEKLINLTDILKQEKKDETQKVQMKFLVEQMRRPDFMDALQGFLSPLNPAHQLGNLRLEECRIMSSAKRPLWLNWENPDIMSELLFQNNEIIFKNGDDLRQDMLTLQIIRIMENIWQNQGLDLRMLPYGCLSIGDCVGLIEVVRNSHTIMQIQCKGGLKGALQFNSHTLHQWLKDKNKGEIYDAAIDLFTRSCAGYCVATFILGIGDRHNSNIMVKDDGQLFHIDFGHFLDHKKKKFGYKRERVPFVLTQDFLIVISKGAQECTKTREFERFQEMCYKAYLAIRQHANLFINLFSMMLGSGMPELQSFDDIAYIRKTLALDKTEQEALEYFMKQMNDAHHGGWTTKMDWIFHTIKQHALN
Procedure: as §1, §2, §3, §4, §5

PI3K beta = target: T4, PI3K beta (Homo sapiens, UniProt P42338); assay: PI3 kinase assay (Kinase-Glo luminescence), PI3K beta; settings: Enzymatic Data; read-out: PI3K beta IC50 [umol]
T4 construct: for the full-length p110-b subunit are generated and fused by overlapping PCR; His tag (C); made in house; host or cells: baculovirus; Tn5 (Trichoplusia ni) or TiniPro insect cells
T4 sequence (P42338 with tags, fused parts or gaps limits assumed): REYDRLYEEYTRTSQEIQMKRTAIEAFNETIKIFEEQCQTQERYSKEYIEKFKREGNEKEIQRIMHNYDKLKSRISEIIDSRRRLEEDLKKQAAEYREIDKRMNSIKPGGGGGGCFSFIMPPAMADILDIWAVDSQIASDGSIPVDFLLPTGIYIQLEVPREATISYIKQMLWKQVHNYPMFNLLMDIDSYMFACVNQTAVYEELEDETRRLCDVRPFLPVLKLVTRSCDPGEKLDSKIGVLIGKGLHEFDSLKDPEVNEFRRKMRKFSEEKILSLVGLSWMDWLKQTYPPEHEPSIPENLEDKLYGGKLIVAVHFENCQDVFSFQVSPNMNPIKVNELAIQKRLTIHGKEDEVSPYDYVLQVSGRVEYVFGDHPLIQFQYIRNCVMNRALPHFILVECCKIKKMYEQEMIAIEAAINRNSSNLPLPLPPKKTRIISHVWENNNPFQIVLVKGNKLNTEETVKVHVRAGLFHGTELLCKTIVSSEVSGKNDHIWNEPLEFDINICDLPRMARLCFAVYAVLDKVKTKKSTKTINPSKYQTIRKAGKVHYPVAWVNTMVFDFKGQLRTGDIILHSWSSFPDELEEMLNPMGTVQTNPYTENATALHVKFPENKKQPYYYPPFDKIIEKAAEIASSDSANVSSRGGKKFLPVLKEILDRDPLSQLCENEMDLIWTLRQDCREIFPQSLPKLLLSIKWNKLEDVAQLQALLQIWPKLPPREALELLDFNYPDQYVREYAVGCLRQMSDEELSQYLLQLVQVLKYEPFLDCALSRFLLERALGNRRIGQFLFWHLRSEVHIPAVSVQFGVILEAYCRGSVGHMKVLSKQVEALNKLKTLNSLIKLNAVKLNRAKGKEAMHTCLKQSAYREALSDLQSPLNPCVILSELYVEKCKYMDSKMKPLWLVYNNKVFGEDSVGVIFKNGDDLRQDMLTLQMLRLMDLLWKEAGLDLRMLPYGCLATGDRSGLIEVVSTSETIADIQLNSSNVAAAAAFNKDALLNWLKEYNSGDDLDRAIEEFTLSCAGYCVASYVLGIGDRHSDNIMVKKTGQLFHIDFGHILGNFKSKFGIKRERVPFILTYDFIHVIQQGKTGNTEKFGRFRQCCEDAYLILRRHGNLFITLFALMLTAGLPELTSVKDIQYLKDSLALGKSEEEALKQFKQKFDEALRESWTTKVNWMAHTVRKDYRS
Procedure: as §1, §2, §3, §4, §5

Row | SMILES | IC50 (PI3K delta) | IC50 (PI3K gamma) | IC50 (PI3K alfa) | IC50 (PI3K beta)
1 | Nc1ncc(-c2ccc3ncc(-c4cncc(C(F)(F)F)c4)n3n2)cc1C(F)(F)F [Example 54, 3-Trifluoro-methyl-5-[3-(5-trifluoro-methyl-pyridin-3-yl)-imidazo [1,2-b]pyridazin-6-yl]-pyridin-2-ylamine] | 231 nM | 814 nM | 147 nM | 274 nM
2 | CS(=O)(=O)Nc1ccc(-c2cnc3ccc(-c4cnc(N)c(C(F)(F)F)c4)nn23)cc1 [Example 45, N-{4-[6-(6-Amino-5-trifluoro-methyl-pyridin-3-yl)-imidazo [1,2-b]pyridazin-3-yl]-phenyl}-methane-sulfonamide] | 282 nM | 7070 nM | 154 nM | 378 nM
3 | COc1cc(-c2ccc3ncc(-c4cnc(N)c(C(F)(F)F)c4)n3n2)ccc1OCCN [Example 59, 5-{6-[4-(2-Amino-ethoxy)-3-methoxy-phenyl]-imidazo [1,2-b]pyridazin-3-yl}-3-trifluoro-methyl-pyridin-2-ylamine] | 60 nM | 401 nM | 33 nM | 24 nM
4 | CNS(=O)(=O)c1ccc(-c2cnc3ccc(-c4cnc(N)c(C(F)(F)F)c4)nn23)cc1 [Example 35, 4-[6-(6-Amino-5-trifluoro-methyl-pyridin-3-yl)-imidazo [1,2-b]pyridazin-3-yl]-N-methyl-benzene-sulfon-amide] | 171 nM | > 9100 nM | 122 nM | 186 nM
5 | Nc1ncc(-c2cnc3ccc(-c4ccc(OCCCN5CCCC5=O)cc4)nn23)cc1C(F)(F)F [Example 89, 1-(3-{4-[3-(6-Amino-5-trifluoro-methyl-pyridin-3-yl)-imidazo [1,2-b]pyridazin-6-yl]-phenoxy}-propyl)-pyrrolidin-2-one] | 88 nM | 543 nM | 74 nM | 2760 nM
6 | Nc1ncc(-c2ccc3ncc(-c4ccc(C(=O)N5CCN(CC(=O)N6CCOCC6)CC5)cc4)n3n2)cc1C(F)(F)F [Example 144, 2-(4-{4-[6-(6-Amino-5-trifluoro-methyl-pyridin-3-yl)-imidazo [1,2-b]pyridazin-3-yl]-benzoyl}-piperazin-1-yl)-1-morpholin-4-yl-ethanone] | 266 nM | 5900 nM | 175 nM | 533 nM
7 | CC(C)C(=O)NCCOc1ccc(-c2ccc3ncc(-c4cnc(N)c(C(F)(F)F)c4)n3n2)cc1 [Example 86, N-(2-{4-[3-(6-Amino-5-trifluoro-methyl-pyridin-3-yl)-imidazo [1,2-b]pyridazin-6-yl]-phenoxy}-ethyl)-isobutyramide] | 97 nM | 111 nM | 94 nM | 701 nM
8 | Nc1ncc(-c2ccc3ncc(-c4ccc5c(cnn5CCN5CCOCC5)c4)n3n2)cc1C(F)(F)F [Example 131, 5-{3-[1-(2-Morpholin-4-yl-ethyl)-1H-indazol-5-yl]-imidazo [1,2-b]pyridazin-6-yl}-3-trifluoro-methyl-pyridin-2-ylamine] | 15 nM | 703 nM | 26 nM | 112 nM
9 | Nc1ncc(-c2ccc3ncc(-c4ccc(OCCCNC(=O)C5CC5)cc4)n3n2)cc1C(F)(F)F [Example 142, Cyclo-propane-carboxylic acid (3-{4-[6-(6-amino-5-trifluoro-methyl-pyridin-3-yl)-imidazo [1,2-b]pyridazin-3-yl]-phenoxy}-propyl)-amide] | 319 nM | > 9100 nM | 45 nM | 3160 nM
10 | Nc1ncc(-c2ccc3ncc(-c4ccc(C(=O)N5CCN(Cc6cccnc6)CC5)c(F)c4)n3n2)cc1C(F)(F)F [Example 112, {4-[6-(6-Amino-5-trifluoro-methyl-pyridin-3-yl)-imidazo [1,2-b]pyridazin-3-yl]-2-fluoro-phenyl}-(4-pyridin-3-ylmethyl-piperazin-1-yl)-methanone] | 14 nM | 956 nM | 12 nM | 623 nM
11 | Nc1ncc(-c2ccc3ncc(-c4ccc(C(=O)N5CCN(Cc6ccccn6)CC5)c(F)c4)n3n2)cc1C(F)(F)F [Example 101, {4-[6-(6-Amino-5-trifluoro-methyl-pyridin-3-yl)-imidazo [1,2-b]pyridazin-3-yl]-2-fluoro-phenyl}-(4-pyridin-2-ylmethyl-piperazin-1-yl)-methanone] | 30 nM | 1170 nM | 8 nM | 168 nM
12 | CC(=O)NCCCOc1ccc(-c2ccc3ncc(-c4cnc(N)c(C(F)(F)F)c4)n3n2)cc1 [Example 71, N-(3-{4-[3-(6-Amino-5-trifluoro-methyl-pyridin-3-yl)-imidazo [1,2-b]pyridazin-6-yl]-phenoxy}-propyl)-acetamide] | 739 nM | 8510 nM | 170 nM | 2650 nM
13 | COc1cc(-c2ccc3ncc(-c4cnc(N)c(C(F)(F)F)c4)n3n2)ccc1OCCNC(=O)C1CC1 [Example 61, Cyclo-propane-carboxylic acid (2-{4-[3-(6-amino-5-trifIuoro-methyl-pyridin-3-yl)-imidazo [1,2-b)pyridazin-6-yl]-2-methoxy-phenoxy}-ethyl)-amide] | 428 nM | 884 nM | 205 nM | 1000 nM
14 | COc1cc(-c2ccc3ncc(-c4cnc5[nH]ccc5c4)n3n2)ccc1OCCN1CCCC1=O [Example 110, 1-(2-{2-Methoxy-4-[3-(1H-pyrrolo [2,3-b]pyridin-5-yl)-imidazo [1,2-b]pyridazin-6-yl]-phenoxy}-ethyl)-pyrrolidin-2-one] | 77 nM | 1370 nM | 40 nM | 1180 nM
15 | O=C(NCCCOc1ccc(-c2ccc3ncc(-c4cncc(C(F)(F)F)c4)n3n2)cc1)C1CC1 [Example 130, Cyclo-propane-carboxylic acid (3-{4-[3-(5-trifluoro-methyl-pyridin-3-yl)-imidazo [1,2-b]pyridazin-6-yl]-phenoxy}-propyl)-amide] | 576 nM | 1300 nM | 347 nM | > 9100 nM
16 | Nc1ncc(-c2ccc3ncc(-c4ccc(C(=O)N5CCN(CCc6ccccn6)CC5)cc4)n3n2)cc1C(F)(F)F [Example 135] | 59 nM | 2010 nM | 46 nM | 587 nM
17 | Nc1ncc(-c2ccc3ncc(-c4ccc(C(=O)NCCN5CCOCC5)cc4F)n3n2)cc1C(F)(F)F [Example 151, 4-[6-(6-Amino-5-trifluoro-methyl-pyridin-3-yl)-imidazo [1,2-b]pyridazin-3-yl]-3-fluoro-N-(2-morpholin-4-yl-ethyl)-benzamide] | 27 nM | 946 nM | 8 nM | 141 nM
